Test results reported in article PMC3701070 (PLoS ONE, 2013).

Columns and labels:
Assay in all cases: Cell growth assay
Format in all cases: cell-based
[1] = system: GDM-1; conditions: Homo sapiens, 72 h; GDM-1, RAF WT, RAS WT, 3-day; read-out: gIC50
Procedure: (§1) Growth was measured with CellTiter-Glo® (Promega) reagent per the manufacturer’s protocol, using a PerkinElmer EnVision™ reader at t = 0 and 72 h. IC50 values for cell growth inhibition (gIC50) were determined.
(§2) (PDF) Click here for additional data file.

[2] = system: RKO; conditions: Homo sapiens, 72 h, BRAF(V600E), RAS WT, 3-day, read-out: gIC50
Procedure: as §1, §2

[3] = system: SW1417; conditions: Homo sapiens, 72 h; SW1417, BRAF(V600E), RAS WT, 3-day; read-out: gIC50
Procedure: as §1, §2

[4] = system: OVCAR-3; conditions: Homo sapiens, 72 h; OVCAR-3, RAF WT, RAS WT, 3-day; read-out: gIC50
Procedure: as §1, §2

[5] = system: SW872; conditions: Homo sapiens, 72 h; SW872, BRAF(V600E), RAS WT, 3-day; read-out: gIC50
Procedure: as §1, §2

[6] = system: SW-780; conditions: Homo sapiens, SW780, 72 h; SW-780, RAF WT, RAS WT, 3-day; read-out: gIC50
Procedure: as §1, §2

[7] = system: EB-3; conditions: Homo sapiens, 72 h; EB-3, RAF WT, RAS WT, 3-day; read-out: gIC50
Procedure: as §1, §2

[8] = system: MDA-MB-175 VII; conditions: Homo sapiens, 72 h, RAF WT, RAS WT, 3-day, read-out: gIC50
Procedure: as §1, §2

[9] = system: KPL-1; conditions: Homo sapiens, 72 h; KPL-1, RAF WT, RAS WT, 3-day; read-out: gIC50
Procedure: as §1, §2

[10] = system: SK-N-AS; conditions: Homo sapiens, 72 h, RAF WT, NRAS(Q61K), 3-day, read-out: gIC50
Procedure: as §1, §2

[11] = system: ARH-77; conditions: Homo sapiens, 72 h; ARH-77, RAF WT, RAS WT, 3-day; read-out: gIC50
Procedure: as §1, §2

[12] = system: KHOS-240S; conditions: Homo sapiens, 72 h, RAF WT, RAS WT, 3-day, read-out: gIC50
Procedure: as §1, §2

[13] = system: OE-33; conditions: Homo sapiens, OE33, 72 h; OE-33, RAF WT, RAS WT, 3-day; read-out: gIC50
Procedure: as §1, §2

[14] = system: TK-10; conditions: Homo sapiens, 72 h; TK-10, RAF WT, RAS WT, 3-day; read-out: gIC50
Procedure: as §1, §2

[15] = system: SR; conditions: Homo sapiens, 72 h, RAF WT, RAS WT, 3-day, read-out: gIC50
Procedure: as §1, §2

[16] = system: CHP-212; conditions: Homo sapiens, 72 h; CHP-212, RAF WT, NRAS(Q61K), 3-day; read-out: gIC50
Procedure: as §1, §2

[17] = system: SNU-1; conditions: Homo sapiens, SNU1, 72 h; SNU-1, RAF WT, RAS WT, 3-day; read-out: gIC50
Procedure: as §1, §2

[18] = system: Calu-3; conditions: Homo sapiens, 72 h; Calu-3, RAF WT, RAS WT, 3-day; read-out: gIC50
Procedure: as §1, §2

[19] = system: SF-268; conditions: Homo sapiens, 72 h; SF-268, RAF WT, RAS WT, 3-day; read-out: gIC50
Procedure: as §1, §2

[20] = system: OV-90; conditions: Homo sapiens, 72 h; OV-90, BRAF(del486-490), RAS WT, 3-day; read-out: gIC50
Procedure: as §1, §2

[21] = system: C3A; conditions: Homo sapiens, 72 h, RAF WT, RAS WT, 3-day, read-out: gIC50
Procedure: as §1, §2

[22] = system: U2OS; conditions: Homo sapiens, 72 h, RAF WT, RAS WT, 3-day, read-out: gIC50
Procedure: as §1, §2

[23] = system: YAPC; conditions: Homo sapiens, 72 h, RAF WT, RAS WT, 3-day, read-out: gIC50
Procedure: as §1, §2

[24] = system: MCF-7; conditions: Homo sapiens, MCF7, 72 h; MCF-7, RAF WT, RAS WT, 3-day; read-out: gIC50
Procedure: as §1, §2

[25] = system: SW1990; conditions: Homo sapiens, 72 h; SW1990, RAF WT, RAS WT, 3-day; read-out: gIC50
Procedure: as §1, §2

[26] = system: HT-1080; conditions: Homo sapiens, 72 h; HT-1080, RAF WT, RAS WT, 3-day; read-out: gIC50
Procedure: as §1, §2

[27] = system: UACC-812; conditions: Homo sapiens, 72 h; UACC-812, RAF WT, RAS WT, 3-day; read-out: gIC50
Procedure: as §1, §2

[28] = system: HN5; conditions: Homo sapiens, 72 h; HN5, RAF WT, RAS WT, 3-day; read-out: gIC50
Procedure: as §1, §2

[29] = system: SF-295; conditions: Homo sapiens, 72 h; SF-295, RAF WT, RAS WT, 3-day; read-out: gIC50
Procedure: as §1, §2

[30] = system: HT; conditions: Homo sapiens, 72 h, RAF WT, RAS WT, 3-day, read-out: gIC50
Procedure: as §1, §2

[31] = system: SHP-77; conditions: Homo sapiens, SHP77, 72 h; SHP-77, RAF WT, KRAS(G12V), 3-day; read-out: gIC50
Procedure: as §1, §2

[32] = system: MiaPaCa; conditions: Homo sapiens, MIA PaCa-2, 72 h, RAF WT, RAS WT, 3-day, read-out: gIC50
Procedure: as §1, §2

[33] = system: KM-12; conditions: Homo sapiens, KM12, 72 h; KM-12, RAF WT, RAS WT, 3-day; read-out: gIC50
Procedure: as §1, §2

SMILES: CC(C)(C)c1nc(-c2cccc(NS(=O)(=O)c3c(F)cccc3F)c2F)c(-c2ccnc(N)n2)s1 [dabrafenib]
- IC50 [1]: 2 µM
- IC50 [2]: 2.52 µM
- IC50 [3]: 0.158 µM
- IC50 [4]: > 10 µM
- IC50 [5]: 0.377 µM
- IC50 [6]: > 10 µM
- IC50 [7]: > 10 µM
- IC50 [8]: > 10 µM
- IC50 [9]: > 10 µM
- IC50 [10]: > 10 µM
- IC50 [11]: > 10 µM
- IC50 [12]: > 10 µM
- IC50 [13]: > 10 µM
- IC50 [14]: > 10 µM
- IC50 [15]: > 10 µM
- IC50 [16]: > 10 µM
- IC50 [17]: 1.5 µM
- IC50 [18]: > 10 µM
- IC50 [19]: > 10 µM
- IC50 [20]: 0.029 µM
- IC50 [21]: 5.41 µM
- IC50 [22]: > 10 µM
- IC50 [23]: > 10 µM
- IC50 [24]: > 10 µM
- IC50 [25]: > 10 µM
- IC50 [26]: 2 µM
- IC50 [27]: > 10 µM
- IC50 [28]: > 10 µM
- IC50 [29]: > 10 µM
- IC50 [30]: > 10 µM
- IC50 [31]: > 10 µM
- IC50 [32]: > 10 µM
- IC50 [33]: > 10 µM
